# Earlier results, collected in patent US7879804B2, “Blood pressure lowering peptides in a single enzymatic step” (DSM IP Assets B.V., priority 2004, dated 2011).
# Tests used:
# ACE = ACE (Homo sapiens, UniProt P12821); details: for ACE inhibiting activities: in vitro, as reported in the literature
# [1] = tested on: spontaneously hypertensive rats; details: Nakamura et al. 1995
# Chain of ACE (P12821 30-1306, species assumed): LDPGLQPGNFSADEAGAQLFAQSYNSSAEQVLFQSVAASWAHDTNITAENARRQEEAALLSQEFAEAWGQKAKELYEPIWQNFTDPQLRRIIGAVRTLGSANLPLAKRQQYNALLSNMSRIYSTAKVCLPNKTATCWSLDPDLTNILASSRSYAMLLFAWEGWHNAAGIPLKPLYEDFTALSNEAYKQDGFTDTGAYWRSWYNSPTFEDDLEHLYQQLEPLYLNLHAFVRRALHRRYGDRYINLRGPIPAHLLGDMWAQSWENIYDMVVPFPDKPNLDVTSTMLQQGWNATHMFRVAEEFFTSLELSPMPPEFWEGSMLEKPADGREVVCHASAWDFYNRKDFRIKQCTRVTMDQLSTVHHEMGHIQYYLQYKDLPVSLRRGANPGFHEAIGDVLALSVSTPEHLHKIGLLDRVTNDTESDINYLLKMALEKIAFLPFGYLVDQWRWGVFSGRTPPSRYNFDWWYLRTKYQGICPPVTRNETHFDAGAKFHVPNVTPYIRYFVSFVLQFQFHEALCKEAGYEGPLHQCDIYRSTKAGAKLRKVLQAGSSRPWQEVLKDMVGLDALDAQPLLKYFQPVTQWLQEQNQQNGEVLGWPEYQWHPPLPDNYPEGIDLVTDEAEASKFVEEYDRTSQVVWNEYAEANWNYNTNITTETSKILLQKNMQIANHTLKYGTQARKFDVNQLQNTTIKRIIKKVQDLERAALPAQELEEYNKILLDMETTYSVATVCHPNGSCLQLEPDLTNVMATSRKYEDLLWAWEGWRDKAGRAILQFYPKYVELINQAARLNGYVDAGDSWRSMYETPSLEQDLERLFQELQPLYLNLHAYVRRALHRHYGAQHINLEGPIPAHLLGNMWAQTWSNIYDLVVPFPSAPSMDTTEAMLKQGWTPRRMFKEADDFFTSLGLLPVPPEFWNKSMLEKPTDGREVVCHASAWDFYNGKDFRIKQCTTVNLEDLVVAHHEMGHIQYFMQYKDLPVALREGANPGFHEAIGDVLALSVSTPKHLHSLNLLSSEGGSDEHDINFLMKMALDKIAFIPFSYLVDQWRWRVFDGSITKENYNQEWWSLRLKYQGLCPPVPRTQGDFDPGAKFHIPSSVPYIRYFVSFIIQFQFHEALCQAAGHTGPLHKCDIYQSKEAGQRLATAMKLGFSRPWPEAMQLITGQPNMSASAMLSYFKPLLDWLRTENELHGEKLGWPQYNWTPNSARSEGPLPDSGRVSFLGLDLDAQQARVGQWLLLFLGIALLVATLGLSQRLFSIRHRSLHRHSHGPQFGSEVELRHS
ACE inhibiting activities (ACE),Substance,"IC50 (ACE; ACE inhibition, reported by EP 0 583 074)",antihypertensive effects [1]
Strong,Ile-Pro-Pro [IPP],–,confirmed
Strong,Leu-Pro-Pro [LPP],–,–

Substance,ACE inhibiting activities (ACE),"IC50 (ACE; ACE inhibition, reported by EP 0 583 074)",antihypertensive effects [1]
Val-Pro-Pro [VPP],Strong,9 µM,confirmed
